US11304929B2, “Tosylacetate based compounds and derivatives thereof as PHGDH inhibitors” (priority 2017, dated 2022)
Where two headings read alike, the source gives them in different places.

Target: PHGDH (Homo sapiens (Human), UniProt O43175)
Assay: 3-Phosphoglycerate Dehydrogenase (PHGDH) Fluorescence Intensity Assay, run at two NAD/3-PG ratios: PHGDH_HIGH_NAD/3-PG (250 μM NAD/500 μM 3-PG) and PHGDH_500_NAD/3-PG (500 μM NAD/500 μM 3-PG)
Type: biochemical
[1] = 250 μM NAD/500 μM 3-PG, read-out: IC50 (PHGDH_HIGH_NAD/3-PG)
[2] = 500 μM NAD/500 μM 3-PG, read-out: IC50 (PHGDH_500_NAD/3-PG)

PHGDH, sequence (O43175 2-533 limits assumed): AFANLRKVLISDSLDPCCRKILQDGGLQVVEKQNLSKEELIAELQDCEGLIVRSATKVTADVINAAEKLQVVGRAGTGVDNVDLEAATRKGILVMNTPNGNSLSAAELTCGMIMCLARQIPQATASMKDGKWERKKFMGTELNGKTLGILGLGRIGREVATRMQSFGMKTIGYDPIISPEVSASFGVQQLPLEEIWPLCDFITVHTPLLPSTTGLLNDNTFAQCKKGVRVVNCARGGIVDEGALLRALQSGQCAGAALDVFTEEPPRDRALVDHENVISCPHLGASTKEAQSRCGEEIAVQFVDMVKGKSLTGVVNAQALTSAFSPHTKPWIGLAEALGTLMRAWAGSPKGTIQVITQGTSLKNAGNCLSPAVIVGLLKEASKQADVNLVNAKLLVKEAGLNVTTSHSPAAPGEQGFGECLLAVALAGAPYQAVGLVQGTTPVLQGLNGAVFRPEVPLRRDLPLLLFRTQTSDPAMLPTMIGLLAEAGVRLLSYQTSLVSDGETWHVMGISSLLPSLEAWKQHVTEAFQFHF

## COC(=O)C(C)(C)S(=O)(=O)c1ccc([C@@H](C)NC(=O)c2cc3c(Cl)c(Cl)c(C)nc3n2C)cc1 [Example 05-020, methyl 2-{4-[(1R)-1-({4,5-dichloro-1,6-dimethyl-1H-pyrrolo[2,3-b]pyridin-2-yl}formamido)ethyl]benzenesulfonyl}-2-methylpropanoate]
[1]
  IC50: > 20000 nM

## COC(=O)C1(S(=O)(=O)c2ccc([C@@H](CO)NC(=O)c3cc4c(Cl)cc(C)cc4n3C)cc2)CCOCC1 [Example 05-021, methyl 4-{4-[(1S)-1-[(4-chloro-1,6-dimethyl-1H-indol-2-yl)formamido]-2-hydroxyethyl]benzenesulfonyl}oxane-4-carboxylate]
[1]
  IC50: 2450 nM

## COC(=O)C(C)(C)S(=O)(=O)c1ccc([C@@H](C)NC(=O)c2cc3c(Cl)c(Cl)c(C)cc3n2C)cc1 [Example 05-022, methyl 2-{4-[(1R)-1-[(4,5-dichloro-1,6-dimethyl-1H-indol-2-yl)formamido]ethyl]benzenesulfonyl}-2-methylpropanoate]
[1]
  IC50: 5580 nM

## Cc1cc2c(cc(C(=O)N[C@H](C)c3ccc(S(=O)(=O)C4CCOC4=O)cc3)n2C)c(Cl)c1Cl (stereo partly drawn) [Example 05-023, 4,5-dichloro-1,6-dimethyl-N-[(1R)-1-{4-[(2-oxooxolan-3-yl)sulfonyl]phenyl}ethyl]-1H-indole-2-carboxamide]
[2]
  IC50: 119 nM

## Cc1cc2c(cc(C(=O)N[C@H](C)c3ccc(S(=O)(=O)C4CCOC4=O)cc3)n2C)c(F)c1F (stereo partly drawn) [Example 05-024, 4,5-difluoro-1,6-dimethyl-N-[(1R)-1-{4-[(2-oxooxolan-3-yl)sulfonyl]phenyl}ethyl]-1H-indole-2-carboxamide]
[2]
  IC50: 119 nM

## Cc1cc2c(cc(C(=O)N[C@H](C)c3ccc(S(=O)(=O)C4CCCOC4=O)cc3)n2C)c(Cl)c1Cl (stereo partly drawn) [Example 05-025, 4,5-dichloro-1,6-dimethyl-N-[(1R)-1-{4-[(2-oxooxan-3-yl)sulfonyl]phenyl}ethyl]-1H-indole-2-carboxamide]
[2]
  IC50: 20 nM

## COC(=O)C1(S(=O)(=O)c2ccc([C@@H](C)NC(=O)c3cc(-c4ccc(F)cc4)nn3C)cc2)CCCC1 [Example 06-003, methyl 1-{4-[(1R)-1-{[3-(4-fluorophenyl)-1-methyl-1H-pyrazol-5-yl]formamido}ethyl]benzenesulfonyl}cyclopentane-1-carboxylate]
[1]
  IC50: 11700 nM

## CC(C)OC(=O)C(C)S(=O)(=O)c1ccc([C@@H](C)NC(=O)c2cc(-c3ccccc3)nn2C)cc1 (stereo partly drawn) [Example 06-004, propan-2-yl 2-{4-[(1R)-1-[(1-methyl-3-phenyl-1H-pyrazol-5-yl)formamido]ethyl]benzenesulfonyl}propanoate]
[1]
  IC50: 78200 nM

## CC(C)OC(=O)C(C)(C)S(=O)(=O)c1ccc([C@@H](C)NC(=O)c2cc(-c3ccccc3)nn2C)cc1 [Example 06-005, propan-2-yl 2-methyl-2-{4-[(1R)-1-[(1-methyl-3-phenyl-1H-pyrazol-5-yl)formamido]ethyl]benzenesulfonyl}propanoate]
[1]
  IC50: 15900 nM

## CC(C)OC(=O)C(C)(C)S(=O)(=O)c1ccc([C@@H](CO)NC(=O)c2cc(-c3ccc(F)cc3)nn2C)cc1 [Example 06-006, propan-2-yl 2-{4-[(1S)-1-{[3-(4-fluorophenyl)-1-methyl-1H-pyrazol-5-yl]formamido}-2-hydroxyethyl]benzenesulfonyl}-2-methylpropanoate]
[1]
  IC50: 14500 nM

## CC(C)OC(=O)C(C)S(=O)(=O)c1ccc([C@@H](CO)NC(=O)c2cc(-c3ccc(F)cc3)nn2C)cc1 (stereo partly drawn) [Example 06-007, propan-2-yl 2-{4-[(1S)-1-{[3-(4-fluorophenyl)-1-methyl-1H-pyrazol-5-yl]formamido}-2-hydroxyethyl]benzenesulfonyl}propanoate]
[1]
  IC50: 29600 nM

## COC(=O)C(C)(C)S(=O)(=O)c1ccc([C@@H](CO)NC(=O)c2cc(-c3ccc(F)cc3)nn2C)cc1 [Example 06-008, methyl 2-{4-[(1S)-1-{[3-(4-fluorophenyl)-1-methyl-1H-pyrazol-5-yl]formamido}-2-hydroxyethyl]benzenesulfonyl}-2-methylpropanoate]
[1]
  IC50: 8340 nM

## CCC(CC)(C(=O)O)S(=O)(=O)c1ccc([C@@H](C)NC(=O)c2cc3c(Cl)cc(C)cc3n2C)cc1 [Example 07-001, 2-{4-[(1R)-1-[(4-chloro-1,6-dimethyl-1H-indol-2-yl)formamido]ethyl]benzenesulfonyl}-2-ethylbutanoic acid]
[1]
  IC50: 10 nM
[2]
  IC50: 14 nM

## Cc1cc(Cl)c2cc(C(=O)N[C@H](C)c3ccc(S(=O)(=O)C(C)C(=O)O)cc3)n(C)c2c1 (stereo partly drawn) [Example 07-003, 2-{4-[(1R)-1-[(4-chloro-1,6-dimethyl-1H-indol-2-yl)formamido]ethyl]benzenesulfonyl}propanoic acid]
[1]
  IC50: 8 nM

## Cc1cc(Cl)c2cc(C(=O)N[C@H](C)c3ccc(S(=O)(=O)C4(C(=O)O)CCCC4)cc3)n(C)c2c1 [Example 07-004, 1-{4-[(1R)-1-[(4-chloro-1,6-dimethyl-1H-indol-2-yl)formamido]ethyl]benzenesulfonyl}cyclopentane-1-carboxylic acid]
[1]
  IC50: 6 nM

## C[C@@H](NC(=O)c1cc2cc(Cl)ccc2n1C)c1ccc(S(=O)(=O)[C@@H](C)C(=O)O)cc1 [Example 07-006, (2S)-2-{4-[(1R)-1-[(5-chloro-1-methyl-1H-indol-2-yl)formamido]ethyl]benzenesulfonyl}propanoic acid]
[1]
  IC50: 238 nM

## C[C@@H](NC(=O)c1cc2cc(Cl)ccc2n1C)c1ccc(S(=O)(=O)C(C)(C)C(=O)O)cc1 [Example 07-007, 2-{4-[(1R)-1-[(5-chloro-1-methyl-1H-indol-2-yl)formamido]ethyl]benzenesulfonyl}-2-methylpropanoic acid]
[1]
  IC50: 209 nM

## C[C@H](C(=O)O)S(=O)(=O)c1ccc([C@@H](C)NC(=O)c2cc3cc(Cl)ccc3n2C)cc1 [Example 07-008, (2R)-2-{4-[(1R)-1-[(5-chloro-1-methyl-1H-indol-2-yl)formamido]ethyl]benzenesulfonyl}propanoic acid]
[1]
  IC50: 139 nM

## CC(C(=O)O)S(=O)(=O)c1ccc([C@@H](C)NC(=O)c2cc3cc(Cl)ccc3n2C)cc1 (stereo partly drawn) [Example 07-009, 2-{4-[(1R)-1-[(5-chloro-1-methyl-1H-indol-2-yl)formamido]ethyl]benzenesulfonyl}propanoic acid]
[1]
  IC50: 190 nM

## COCCC(C(=O)O)S(=O)(=O)c1ccc([C@@H](C)NC(=O)c2cc3c(Cl)cc(C)cc3n2C)cc1 (stereo partly drawn) [Example 07-010, 2-{4-[(1R)-1-[(4-chloro-1,6-dimethyl-1H-indol-2-yl)formamido]ethyl]benzenesulfonyl}-4-methoxybutanoic acid]
[1]
  IC50: 21 nM

## CCC(C(=O)O)S(=O)(=O)c1ccc([C@@H](C)NC(=O)c2cc3c(Cl)cc(C)cc3n2C)cc1 (stereo partly drawn) [Example 07-011, 2-{4-[(1R)-1-[(4-chloro-1,6-dimethyl-1H-indol-2-yl)formamido]ethyl]benzenesulfonyl}butanoic acid]
[1]
  IC50: 11 nM

## Cc1cc(Cl)c2cc(C(=O)N[C@H](C)c3ccc(S(=O)(=O)C4(C(=O)O)CC4)cc3)n(C)c2c1 [Example 07-013, 1-{4-[(1R)-1-[(4-chloro-1,6-dimethyl-1H-indol-2-yl)formamido]ethyl]benzenesulfonyl}cyclopropane-1-carboxylic acid]
[1]
  IC50: 10 nM
[2]
  IC50: 15 nM

## Cc1cc2c(cc(C(=O)N[C@H](CO)c3ccc(S(=O)(=O)C(C)(C)C(=O)O)cc3)n2C)c(Cl)c1Cl [Example 07-014, 2-{4-[(1S)-1-[(4,5-dichloro-1,6-dimethyl-1H-indol-2-yl)formamido]-2-hydroxyethyl]benzenesulfonyl}-2-methylpropanoic acid]
[1]
  IC50: 4 nM
[2]
  IC50: 6 nM

## Cc1cc2c(cc(C(=O)N[C@H](C)c3ccc(S(=O)(=O)C(C)(C)C(=O)O)cc3)n2C)c(Cl)c1Cl [Example 07-015, 2-{4-[(1R)-1-[(4,5-dichloro-1,6-dimethyl-1H-indol-2-yl)formamido]ethyl]benzenesulfonyl}-2-methylpropanoic acid]
[1]
  IC50: 5 nM
[2]
  IC50: 9 nM

## CC(=O)N1CCC(C(=O)O)(S(=O)(=O)c2ccc([C@@H](C)NC(=O)c3cc4c(Cl)c(Cl)c(C)cc4n3C)cc2)CC1 [Example 07-016, 1-acetyl-4-{4-[(1R)-1-[(4,5-dichloro-1,6-dimethyl-1H-indol-2-yl)formamido]ethyl]benzenesulfonyl}piperidine-4-carboxylic acid]
[2]
  IC50: 21 nM

## C[C@@H](NC(=O)c1cc(-c2ccc(F)cc2)nn1C)c1ccc(S(=O)(=O)C(C)(C)C(=O)O)cc1 [Example 08-001, 2-{4-[(1R)-1-{[3-(4-fluorophenyl)-1-methyl-1H-pyrazol-5-yl]formamido}ethyl]benzenesulfonyl}-2-methylpropanoic acid]
[1]
  IC50: 161 nM

## C[C@@H](NC(=O)c1cc(-c2ccc(F)cc2)nn1C)c1ccc(S(=O)(=O)C2(C(=O)O)CCCC2)cc1 [Example 08-002, 1-{4-[(1R)-1-{[3-(4-fluorophenyl)-1-methyl-1H-pyrazol-5-yl]formamido}ethyl]benzenesulfonyl}cyclopentane-1-carboxylic acid]
[1]
  IC50: 74 nM
[2]
  IC50: 95 nM

## C[C@@H](NC(=O)c1cc(-c2ccc(F)cc2)nn1C)c1ccc(S(=O)(=O)C2(C(=O)O)CCOCC2)cc1 [Example 08-003, 4-{4-[(1R)-1-{[3-(4-fluorophenyl)-1-methyl-1H-pyrazol-5-yl]formamido}ethyl]benzenesulfonyl}oxane-4-carboxylic acid]
[1]
  IC50: 139 nM

## COCCOC(=O)CS(=O)(=O)c1ccc([C@@H](C)NC(=O)c2cc3cc(C(F)(F)F)ccc3n2C)cc1 [Example 09-008, 2-methoxyethyl 2-{4-[(1R)-1-{[1-methyl-5-(trifluoromethyl)-1H-indol-2-yl]formamido}ethyl]benzenesulfonyl}acetate]
[1]
  IC50: 3460 nM

## CCCCOC(=O)CS(=O)(=O)c1ccc([C@@H](C)NC(=O)c2cc3c(Cl)cc(C)cc3n2C)cc1 [Example 09-009, butyl 2-{4-[(1R)-1-[(4-chloro-1,6-dimethyl-1H-indol-2-yl)formamido]ethyl]benzenesulfonyl}acetate]
[1]
  IC50: 3740 nM
